The IC50 is the concentration that inhibits the measured activity by half. Higher therefore signals weaker potency in that assay.

Here are results for three compounds from patent publication US20090163525A1, “SUBSTITUTED QUINAZOLINES WITH ANTI-CANCER ACTIVITY” (ASTRAZENECA AB, priority 2006, published 2009).

The target of this experiment is Mutant B-Raf (V600E) enzyme (MT B-Raf) (Homo sapiens, UniProt P15056, V600E). The experiment can be described thus: B-Raf in vitro AlphaScreen assay. The class given is biochemical. As to conditions: phosphorylation of biotinylated HIS-MEK-AVI, 24 μM ATP in mix. As to the method:
B-Raf In-vitro AlphaScreen Assay
MT B-Raf was expressed in insect cells and affinity purified by Ni^+2 agarose followed by Q-Sepharose chromatography. Typical yield was 1.08 mg/ml at >90% purity.
The phosphorylation of the MT B-Raf substrate in the presence and absence of the compound of interest was determined. Briefly, 5 μl of enzyme/substrate/adenosine triphosphate (ATP) mix consisting of 0.12 nM MT B-Raf, 84 nM biotinylated HIS-MEK-AVI, and 24 μM ATP in 1.2× buffer was preincubated with 2 μl of compound for 20 minutes at 25° C. Reactions were initiated with 5 μl of Metal mix consisting of 24 mM MgCl2 in 1.2× buffer and incubated at 25° C. for 60 minutes and reactions were stopped by addition of 5 μl of Detection mix consisting of 20 mM HEPES, 102 mM ethylenediamine tetraacetic acid, 1.65 mg/ml BSA, 136 mM NaCl, 3.4 nM Phospho-MEK1/2 (Ser217/221) antibody (Catalog #9121, Cell Signaling Technology, Mass.), 40 μg/ml Streptavidin donor beads (Perkin Elmer, Mass., Catalog #6760002), and 40 μg/ml Protein A acceptor beads (Perkin Elmer, Mass., Catalog #6760137). Plates were incubated at 25° C. for 18 hours in the dark. Phosphorylated substrate was detected by an EnVision plate reader (Perkin Elmer, Mass.) 680 nm excitation, 520-620 nm emission. Data was graphed and IC50s calculated using Excel Fit (Microsoft).
On the technique in general: Bead proximity is the source of the signal in Alpha formats.

Chain of Mutant B-Raf (V600E) enzyme (MT B-Raf) (P15056 whole entry V600E): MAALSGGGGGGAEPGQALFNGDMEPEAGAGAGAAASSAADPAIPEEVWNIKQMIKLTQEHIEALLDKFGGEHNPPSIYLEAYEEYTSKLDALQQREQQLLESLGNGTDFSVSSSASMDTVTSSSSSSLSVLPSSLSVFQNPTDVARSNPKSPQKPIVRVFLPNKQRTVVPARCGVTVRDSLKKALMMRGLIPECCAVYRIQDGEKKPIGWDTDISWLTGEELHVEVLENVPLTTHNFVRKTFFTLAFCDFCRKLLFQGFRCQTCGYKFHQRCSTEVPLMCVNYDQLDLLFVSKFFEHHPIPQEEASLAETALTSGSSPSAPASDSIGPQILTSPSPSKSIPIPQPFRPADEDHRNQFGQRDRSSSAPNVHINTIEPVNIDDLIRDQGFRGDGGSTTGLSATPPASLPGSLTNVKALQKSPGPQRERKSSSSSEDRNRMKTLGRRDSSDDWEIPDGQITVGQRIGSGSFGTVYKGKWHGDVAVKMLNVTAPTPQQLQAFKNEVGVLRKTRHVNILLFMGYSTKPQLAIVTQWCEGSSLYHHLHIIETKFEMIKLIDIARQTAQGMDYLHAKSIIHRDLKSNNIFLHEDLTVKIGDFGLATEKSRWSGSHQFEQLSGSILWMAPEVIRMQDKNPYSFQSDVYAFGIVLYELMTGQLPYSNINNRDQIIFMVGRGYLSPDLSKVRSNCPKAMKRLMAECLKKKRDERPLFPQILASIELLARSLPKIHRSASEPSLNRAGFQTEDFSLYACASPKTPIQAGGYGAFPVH

In turn, `Cc1ccc(NC(=O)Nc2cccc(C(F)(F)F)c2)cc1Nc1ccc2ncn(C)c(=O)c2c1` [Example 1, N-{4-Methyl-3-[(3-methyl-4-oxo-3,4-dihydroquinazolin-6-yl)amino]phenyl}-N-′[3-(trifluoromethyl)phenyl]urea] came in with a half-inhibitory concentration (IC50) of 14.3 nM.
On to `Cc1ccc(NC(=O)Nc2ccc(Cl)c(Cl)c2)cc1Nc1ccc2ncn(C)c(=O)c2c1` [Example 2, N-(3,4-Dichlorophenyl)-N′-{4-methyl-3-[(3-methyl-4-oxo-3,4-dihydroquinazolin-6-yl)amino]phenyl}urea], for which the half-maximal inhibitory concentration (IC50) was found to be 363 nM.
The same measure for `Cc1ccc(NC(=O)Nc2cccc(C(C)(C)C#N)c2)cc1Nc1ccc2ncn(C)c(=O)c2c1` [Example 6, N-[3-(1-Cyano-1-methylethyl)phenyl]-N′-{4-methyl-3-[(3-methyl-4-oxo-3,4-dihydroquinazolin-6-yl)amino]phenyl}urea]: 99 nM.
